Reference: US11008340B2, “Modulators of ROR-gamma” (Vitae Pharmaceuticals, LLC, priority 2015, dated 2021)
pIC50, pKi: −log10 of the molar value. Like-named read-outs stand apart in the source and are kept apart here.

Key:
[1] = molecular target: T1, recombinant RORγ Ligand Binding Domain (LBD) protein (Homo sapiens, UniProt P51449); test: Radio-Ligand RORγ Binding Assay (Assay 1); details: radio-ligand competition, RORγ LBD, read-out: Avg ROR Bind Ki
T1 construct: 6×His; GST
T1 sequence (P51449 269-508 limits assumed): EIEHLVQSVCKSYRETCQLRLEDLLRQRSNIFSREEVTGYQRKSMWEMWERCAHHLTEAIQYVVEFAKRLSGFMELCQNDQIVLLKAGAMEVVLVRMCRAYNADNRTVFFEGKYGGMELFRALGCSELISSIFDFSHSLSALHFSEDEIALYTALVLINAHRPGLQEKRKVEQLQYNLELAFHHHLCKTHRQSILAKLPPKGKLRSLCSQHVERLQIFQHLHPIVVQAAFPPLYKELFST
Summary of the method: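 Cell-free SPA competition between compound and 25-hydroxy[26,27-^3H]-cholesterol for 6×His-GST-tagged RORγ LBD in 50 mM HEPES pH 7.4 with NaCl, MgCl2, glycerol, CHAPS, octylglucoside and DTT. Mix was shaken 20 min, held 10 min at rt, then read after poly-Lys YSi beads. IC50 came from a four-parameter fit, and Ki from radioligand KD.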

[2] = molecular target: T2, full-length RORγt in Jurkat cells (Homo sapiens, UniProt P51449); test: RORγt 5×RORE Assay in Jurkat Cells (Assay 2); format: cell-based; details: 5×RORE luciferase reporter
T2 construct: transcriptional activity of the full-length RORγt in Jurkat cells; host or cells: Jurkat cells (ATCC TIB-152)
T2 sequence (P51449 1-497 isoform P51449-2): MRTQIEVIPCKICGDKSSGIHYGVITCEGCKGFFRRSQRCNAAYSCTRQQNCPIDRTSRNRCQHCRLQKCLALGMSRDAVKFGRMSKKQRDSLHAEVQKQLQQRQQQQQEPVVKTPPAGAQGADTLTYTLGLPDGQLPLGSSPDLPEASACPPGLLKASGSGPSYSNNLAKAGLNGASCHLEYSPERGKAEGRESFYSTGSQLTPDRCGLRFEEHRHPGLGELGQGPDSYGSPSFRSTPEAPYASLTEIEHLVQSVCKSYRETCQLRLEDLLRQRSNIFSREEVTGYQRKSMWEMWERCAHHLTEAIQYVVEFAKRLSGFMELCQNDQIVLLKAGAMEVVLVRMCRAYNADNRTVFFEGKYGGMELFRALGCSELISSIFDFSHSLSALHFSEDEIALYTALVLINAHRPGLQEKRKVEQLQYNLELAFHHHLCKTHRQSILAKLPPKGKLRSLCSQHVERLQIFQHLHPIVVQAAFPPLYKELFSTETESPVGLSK
Procedure: [formula] RORγt 5×RORE Assay in Jurkat Cells (Assay 2)
Compounds described herein were tested for RORγ inverse agonist activity in a cell-based, transcriptional activity assay. Secreted Nanoluc″ luciferase was used as a reporter for transcriptional activity of the full-length RORγt in Jurkat cells (ATCC, Cat. #TIB-152). A reporter plasmid was constructed by inserting 5 repeats of the ROR Response Element (RORE) […] (SEQ ID NO: 1) into a commercially available promoterless plasmid pNL1.3[secNluc] (Promega, Cat. #N1021) using KpnI and HindIII restriction sites. The expression plasmid for RORγt was purchased (Geneocopoeia, Cat. #EX-T6988-M02). Jurkat cells (30 million cells) were transfected with 11 μg of EX-T6988-MO2 and 26 μg of the reporter plasmid in OptiMEM® media using Lipofectamine LTX and Plus™ reagents (Life Technologies, Cat. #15338-100). After 5-6 hrs of incubation at 37° C./5% CO2, the cells were collected, resuspended in phenol-red free RPMI media containing 10% (v/v) delipidated FBS (Hyclone, Cat. #SH30855.03) and dispensed into 96-well clear bottom tissue culture plates (CoStar, Cat. #3603), at 80,000 cells per well. Tested compounds were added to the cells in the same media (final concentration of DMSO was 0.1% (v/v)), and the plates were incubated at 37° C./5% CO2 for 16-18 hrs. Luciferase activity in the conditioned supernatants was determined with NanoGlo® assay reagents (Promega, Cat. #N1130).

[3] = 25-hydroxy [26,27-3H]-cholesterol
[4] = Table 20, read-out: Avg ROR γt/5x IC5

Row | pKi [1, 3] | pIC50 [2, 4] | pIC50 ([2]; read-out: Avg ROR γt/5x IC50) | pKi ([1]; head without unit (Tables 15, 17)) | pIC50 ([2]; head without unit (Tables 15, 17), read-out: Avg ROR γt/5x IC50) | Structure (SMILES)
1 | > 7.00 | > 7.00 | – | – | – | CC[C@@H]1CN(c2ncc(C(F)(F)F)cn2)Cc2cc(C(=O)NCc3ccc(S(=O)(=O)CC)cc3)ccc21 (single isomer, unassigned) [Hy7-9.1]
2 | > 7.00 | – | > 7.00 | – | – | CCS(=O)(=O)c1ccc(CNC(=O)c2ccc3c(c2)CCN(Cc2ccc(OC(F)F)nc2)[C@H]3C(C)C)cc1 (single isomer, unassigned) [Hy2A-25.1]
3 | > 7.00 | < 6.00 | – | – | – | CCS(=O)(=O)c1ccc(CNC(=O)c2ccc3c(c2)CN(Cc2ccc(Cl)cc2)C[C@H]3C(C)C)cc1 (single isomer, unassigned) [Hy7-29.1]
4 | > 7.00 | < 6.00 | – | – | – | CCS(=O)(=O)c1ccc(CNC(=O)c2ccc3c(c2)CN(c2nccc(C(F)(F)F)n2)C[C@H]3C(C)C)cc1 (single isomer, unassigned) [Hy7-14.1]
5 | > 7.00 | < 6.00 | – | – | – | CCS(=O)(=O)c1ccc(CNC(=O)c2ccc3c(c2)CN(c2ncc(Cl)cn2)C[C@@H]3C(C)C)cc1 (single isomer, unassigned) [Hy7-3.2]
6 | > 7.00 | – | > 7.00 | – | – | CCS(=O)(=O)c1ccc([C@H](CO)NC(=O)c2ccc3c(C4CC4)n(C[C@H]4CC[C@H](C(F)(F)F)CC4)nc3c2)cc1 [Hy3A-1, 3-cyclopropyl-N-((R)-1-(4-(ethylsulfonyl)phenyl)-2-hydroxyethyl)-2-(((1r,4R)-4-(trifluoromethyl)cyclohexyl)methyl)-2H-indazole-6-carboxamide]
7 | 6.00 to 7.00 | – | < 6.00 | – | – | CCS(=O)(=O)c1ccc(CNC(=O)c2ccc3c(c2)CCN(c2ncc(C(F)(F)F)cn2)C3C(C)C)cc1 (stereo not shown) [Hy2A-2, N-(4-(ethylsulfonyl)benzyl)-1-isopropyl-2-(5-(trifluoromethyl)pyrimidin-2-yl)-1,2,3,4-tetrahydroisoquinoline-6-carboxamide]
8 | 6.00 to 7.00 | – | 6.00 to 7.00 | – | – | CCS(=O)(=O)c1ccc(CNC(=O)c2ccc3c(c2)CCN(CC2CCN(C(=O)OC)CC2)[C@H]3C(C)C)cc1 [Hy2A-24, methyl (S)-4-((6-((4-(ethylsulfonyl)benzyl)carbamoyl)-1-isopropyl-3,4-dihydroisoquinolin-2(1H)-yl)methyl)piperidine-1-carboxylate]
9 | – | – | – | > 7.00 | 6.00 to 7.00 | CCS(=O)(=O)c1ccc(CNC(=O)c2cc3ccnc(OC[C@H]4CC[C@H](C(F)(F)F)CC4)c3n2C)cc1 [Hy4-1, N-(4-(ethylsulfonyl)benzyl)-1-methyl-7-(((1r,4r)-4-(trifluoromethyl)cyclohexyl)methoxy)-1H-pyrrolo[2,3-c]pyridine-2-carboxamide]
10 | > 7.00 | – | 6.00 to 7.00 | – | – | CCS(=O)(=O)c1ccc(CNC(=O)c2ccc3c(c2)CCN(Cc2ccc(Cl)cc2)C3C)cc1 (racemic) [Hy2A-11, 2-(4-chlorobenzyl)-N-(4-(ethylsulfonyl)benzyl)-1-methyl-1,2,3,4-tetrahydroisoquinoline-6-carboxamide]
11 | > 7.00 | < 6.00 | – | – | – | CCS(=O)(=O)c1ccc(CNC(=O)c2ccc3c(c2)CN(Cc2ccc(F)cc2)C[C@H]3C(C)C)cc1 (single isomer, unassigned) [Hy7-27.1]
12 | > 7.00 | – | > 7.00 | – | – | CCS(=O)(=O)c1ccc(CNC(=O)c2ccc3c(OC[C@H]4CC[C@H](C(F)(F)F)CC4)nc(C)cc3c2)cc1 [Hy1A-6, N-(4-(ethylsulfonyl)benzyl)-3-methyl-1-(((1r,4r)-4-(trifluoromethyl)cyclohexyl)methoxy)isoquinoline-6-carboxamide]
13 | > 7.00 | – | > 7.00 | – | – | CCS(=O)(=O)c1ccc(CNC(=O)c2ccc3c(c2)CCN(Cc2ccc(C#N)cc2)[C@H]3C(C)C)cc1 (single isomer, unassigned) [Hy2A-15.1]
14 | > 7.00 | – | > 7.00 | – | – | CCS(=O)(=O)c1ccc(CNC(=O)c2ccc3c(c2)CCN(Cc2ccc(C#N)nc2)[C@H]3C(C)C)cc1 (single isomer, unassigned) [Hy2A-17.1]
15 | > 7.00 | – | > 7.00 | – | – | CCS(=O)(=O)c1ccc([C@H](CO)NC(=O)c2ccc3c(OC[C@H]4CC[C@H](C(F)(F)F)CC4)nc(C)cc3c2)nc1 (single isomer, unassigned) [Hy1A-22.1]
16 | > 7.00 | 6.00 to 7.00 | – | – | – | CC[C@H]1CN(c2ccc(C(F)(F)F)cn2)Cc2cc(C(=O)NCc3ccc(S(=O)(=O)CC)cc3)ccc21 (single isomer, unassigned) [Hy7-8.2]
17 | > 7.00 | 6.00 to 7.00 | – | – | – | CC[C@H]1CN(c2ccc(C(F)(F)F)cc2)Cc2cc(C(=O)NCc3ccc(S(=O)(=O)CC)cc3)ccc21 (single isomer, unassigned) [Hy7-7.2]
18 | > 7.00 | < 6.00 | – | – | – | CC[C@H]1CN(c2ncc(-c3ncco3)cn2)Cc2cc(C(=O)NCc3ccc(S(=O)(=O)CC)cc3)ccc21 (single isomer, unassigned) [Hy7-31.2]
19 | > 7.00 | – | > 7.00 | – | – | CCS(=O)(=O)c1ccc([C@H](CO)NC(=O)c2ccc3c(C4CC4)n(C[C@H]4CC[C@H](C(F)(F)F)CC4)nc3c2)nc1 [Hy3A-6, 3-cyclopropyl-N-((R)-1-(5-(ethylsulfonyl)pyridin-2-yl)-2-hydroxyethyl)-2-(((1r,4R)-4-(trifluoromethyl)cyclohexyl)methyl)-2H-indazole-6-carboxamide]
20 | > 7.00 | 6.00 to 7.00 | – | – | – | CCS(=O)(=O)c1ccc(CNC(=O)c2ccc3c(c2)CN(Cc2ccc(Cl)cc2)C[C@@H]3C(C)C)cc1 (single isomer, unassigned) [Hy7-29.2]
21 | > 7.00 | > 7.00 | – | – | – | CC[C@@H]1CN(c2ncc(-c3ncco3)cn2)Cc2cc(C(=O)NCc3ccc(S(=O)(=O)CC)cc3)ccc21 (single isomer, unassigned) [Hy7-31.1]
22 | > 7.00 | – | > 7.00 | – | – | CCS(=O)(=O)c1ccc(CNC(=O)c2ccc3c(C4CC4)n(C[C@H]4CC[C@H](C(F)(F)F)CC4)nc3c2)nc1 [Hy3A-3, 3-cyclopropyl-N-((5-(ethylsulfonyl)pyridin-2-yl)methyl)-2-(((1r,4r)-4-(trifluoromethyl)cyclohexyl)methyl)-2H-indazole-6-carboxamide]
23 | > 7.00 | – | > 7.00 | – | – | CCC1c2ccc(C(=O)NC(CO)c3ccc(S(=O)(=O)CC)cc3)cc2CCN1CC1CCC(C(F)(F)F)CC1 (single isomer, unassigned) [Hy2A-28.1]
24 | > 7.00 | – | < 6.00 | – | – | CCS(=O)(=O)c1ccc(CNC(=O)c2ccc3c(OC4CCC(C(F)(F)F)CC4)nccc3c2)cc1 (single isomer, unassigned) [Hy1A-3.1, N-(4-(ethylsulfonyl)benzyl)-1-(((1s,4s)-4-(trifluoromethyl)cyclohexyl)oxy)isoquinoline-6-carboxamide]
25 | > 7.00 | 6.00 to 7.00 | – | – | – | CC[C@@H]1CN(c2ccc(C(F)(F)F)cc2)C(=O)c2cc(C(=O)NCc3ccc(S(=O)(=O)CC)cc3)ccc21 (single isomer, unassigned) [Hy7-12.1]
26 | > 7.00 | – | > 7.00 | – | – | CCS(=O)(=O)c1ccc([C@H](CO)NC(=O)c2sc3nc(C)nc(OC[C@H]4CC[C@H](C(F)(F)F)CC4)c3c2C)cc1 [Hy6-4, N-((R)-1-(4-(ethylsulfonyl)phenyl)-2-hydroxyethyl)-2,5-dimethyl-4-(((1r,4R)-4-(trifluoromethyl)cyclohexyl)methoxy)thieno[2,3-d]pyrimidine-6-carboxamide]
